From patent publication US4068070A, “α-Cyanoamine compounds and a process for producing the same” (Fuji Chemical Industry Co., Ltd., priority 1974, dated 1978)

Columns and labels:
Type in all cases: in vivo, mongrel adult dogs
[1] = tested on: arterial mean blood pressure; experiment: Effects on arterial mean blood pressure
Description: (§1) All experiments were made on male and female thoractomized mongrel adult dogs weighing about 10 kg. under anesthesia with pentobarbital sodium. Compounds A, D, E and F were suspended in 0.2% CMC solution, Compound B dissolved in hydrochloric acid solution (pH 6), and Compound C and active placebo being dissolved in physiological saline solution. Animals were administered the drug intravenously on brachiuma with either test compound or active placebo.
(§2) Arterial blood pressure was measured by pressure transducer (Nippon Koden MPU-0.5) connected with the cannula inserted from exposed carotid artery into aorta. Aortic blood flow was determined by means of electromagnetic flow meter (Nippon Koden MF-5) mounted at the origin of the aorta. Coronary sinus out flow and coronary sinus oxygen tension were assessed by means of electromagnetic flow meter (Nippon Koden MF-5) and P02 macro electrode (Beokmann Moder 160-C), respectively using Morawitz cannulization technique. Heart rate was measured by cardiotachometer (Nippon Koden RT-2) synchronized with systolic blood pressure of aorta.

aortic blood flow = experiment: Effects on aortic blood flow
Description: as §1, §2

coronary sinus out flow = experiment: Effects on coronary sinus out flow
Description: as §1, §2

[2] = tested on: coronary sinus oxygen tension; experiment: Effects on coronary sinus oxygen tension
Description: as §1, §2

heart rate = experiment: Effects on heart rate
Description: as §1, §2

For CCOC(=O)N1CCN(C(C#N)c2ccc(OC)c(OC)c2)CC1 (centres unmarked) [Compound A], the “Changes (%) of basal values, arterial mean blood pressure” value ([1]; 2.0 mg/kg i.v., 1 min) was -1.5%, the “Changes (%) of basal values, arterial mean blood pressure” value ([1]; 2.0 mg/kg i.v., 5 min) was -2.6% and the “Changes (%) of basal values, arterial mean blood pressure” value ([1]; 2.0 mg/kg i.v., 10 min) was -4.2%. The “Changes (%) of basal values, arterial mean blood pressure” value ([1]; 2.0 mg/kg i.v., 20 min) was -3.8%, the “Changes (%) of basal values, arterial mean blood pressure” value ([1]; 2.0 mg/kg i.v., 30 min) was -4.5% and the “Changes (%) of basal values, arterial mean blood pressure” value ([1]; 2.0 mg/kg i.v., imm.) was -4.0%. For the same compound, the “Changes (%) of basal values, arterial mean blood pressure” value ([1]; 6.0 mg/kg i.v., 1 min) was -3.4%, the “Changes (%) of basal values, arterial mean blood pressure” value ([1]; 6.0 mg/kg i.v., 5 min) was -5.2% and the “Changes (%) of basal values, arterial mean blood pressure” value ([1]; 6.0 mg/kg i.v., 10 min) was -6.0%. The “Changes (%) of basal values, arterial mean blood pressure” value ([1]; 6.0 mg/kg i.v., 20 min) was -5.2%, the “Changes (%) of basal values, arterial mean blood pressure” value ([1]; 6.0 mg/kg i.v., 30 min) was -3.0% and the “Changes (%) of basal values, arterial mean blood pressure” value ([1]; 6.0 mg/kg i.v., imm.) was -4.2%. The “Changes (%) of basal values, arterial mean blood pressure” value ([1]; 20.0 mg/kg i.v., 1 min) was -16.9%, the “Changes (%) of basal values, arterial mean blood pressure” value ([1]; 20.0 mg/kg i.v., 5 min) was -16.9% and the “Changes (%) of basal values, arterial mean blood pressure” value ([1]; 20.0 mg/kg i.v., 10 min) was -16.0%. The “Changes (%) of basal values, arterial mean blood pressure” value ([1]; 20.0 mg/kg i.v., 20 min) was -17.0%, the “Changes (%) of basal values, arterial mean blood pressure” value ([1]; 20.0 mg/kg i.v., 30 min) was -14.9% and the “Changes (%) of basal values, arterial mean blood pressure” value ([1]; 20.0 mg/kg i.v., imm.) was -14.5%. The “Effects on arterial mean blood pressure (in words)” value ([1]; i.v., anesthetized dogs) was “hypotensive effects being proportioned to their doses which were of long duration”, the “Changes (%) of basal values, aortic blood flow” value (“Changes (%) … aortic blood flow” for short) (aortic blood flow; 2.0 mg/kg i.v., 1 min) was “+4.3%” and the “Changes (%) … aortic blood flow” value (aortic blood flow; 2.0 mg/kg i.v., 5 min) was “+3.7%”. The “Changes (%) … aortic blood flow” value (aortic blood flow; 2.0 mg/kg i.v., 10 min) was “+2.3%”, the “Changes (%) … aortic blood flow” value (aortic blood flow; 2.0 mg/kg i.v., 20 min) was “+1.0%” and the “Changes (%) … aortic blood flow” value (aortic blood flow; 2.0 mg/kg i.v., 30 min) was “+1.0%”. The “Changes (%) … aortic blood flow” value (aortic blood flow; 2.0 mg/kg i.v., imm.) was “+0.5%”, the “Changes (%) … aortic blood flow” value (aortic blood flow; 6.0 mg/kg i.v., 1 min) was “+5.8%” and the “Changes (%) … aortic blood flow” value (aortic blood flow; 6.0 mg/kg i.v., 5 min) was “+3.7%”. The “Changes (%) … aortic blood flow” value (aortic blood flow; 6.0 mg/kg i.v., 10 min) was “+0.1%”, the “Changes (%) … aortic blood flow” value (aortic blood flow; 6.0 mg/kg i.v., 20 min) was -0.2% and the “Changes (%) … aortic blood flow” value (aortic blood flow; 6.0 mg/kg i.v., 30 min) was “+0.2%”. The “Changes (%) … aortic blood flow” value (aortic blood flow; 6.0 mg/kg i.v., imm.) was “+4.3%”, the “Changes (%) … aortic blood flow” value (aortic blood flow; 20.0 mg/kg i.v., 1 min) was “+7.3%” and the “Changes (%) … aortic blood flow” value (aortic blood flow; 20.0 mg/kg i.v., 5 min) was “+10.2%”. The “Changes (%) … aortic blood flow” value (aortic blood flow; 20.0 mg/kg i.v., 10 min) was “+8.0%”, the “Changes (%) … aortic blood flow” value (aortic blood flow; 20.0 mg/kg i.v., 20 min) was “+3.3%” and the “Changes (%) … aortic blood flow” value (aortic blood flow; 20.0 mg/kg i.v., 30 min) was “+1.0%”. For the same compound, the “Changes (%) … aortic blood flow” value (aortic blood flow; 20.0 mg/kg i.v., imm.) was “+6.1%”, the “increased aortic blood flow” value (aortic blood flow; during the course of observation period, i.v.) was 2-8% and the “Changes(%) of basal values, coronary sinus out flow” value (coronary sinus out flow; 2.0 mg/kg i.v., 1 min) was “+7.6%”. For the same compound, the “Changes(%) of basal values, coronary sinus out flow” value (coronary sinus out flow; 2.0 mg/kg i.v., 5 min) was “+5.4%”, the “Changes(%) of basal values, coronary sinus out flow” value (coronary sinus out flow; 2.0 mg/kg i.v., 10 min) was “+4.7%” and the “Changes(%) of basal values, coronary sinus out flow” value (coronary sinus out flow; 2.0 mg/kg i.v., 20 min) was “+4.0%”. For the same compound, the “Changes(%) of basal values, coronary sinus out flow” value (coronary sinus out flow; 2.0 mg/kg i.v., 30 min) was “+3.5%”, the “Changes(%) of basal values, coronary sinus out flow” value (coronary sinus out flow; 2.0 mg/kg i.v., imm.) was “+10.9%” and the “Changes(%) of basal values, coronary sinus out flow” value (coronary sinus out flow; 6.0 mg/kg i.v., 1 min) was “+16.6%”. For the same compound, the “Changes(%) of basal values, coronary sinus out flow” value (coronary sinus out flow; 6.0 mg/kg i.v., 5 min) was “+17.0%”, the “Changes(%) of basal values, coronary sinus out flow” value (coronary sinus out flow; 6.0 mg/kg i.v., 10 min) was “+18.0%” and the “Changes(%) of basal values, coronary sinus out flow” value (coronary sinus out flow; 6.0 mg/kg i.v., 20 min) was “+8.5%”. For the same compound, the “Changes(%) of basal values, coronary sinus out flow” value (coronary sinus out flow; 6.0 mg/kg i.v., 30 min) was “+8.0%”, the “Changes(%) of basal values, coronary sinus out flow” value (coronary sinus out flow; 6.0 mg/kg i.v., imm.) was “+12.0%” and the “Changes(%) of basal values, coronary sinus out flow” value (coronary sinus out flow; 20.0 mg/kg i.v., 1 min) was “+34.3%”. The “Changes(%) of basal values, coronary sinus out flow” value (coronary sinus out flow; 20.0 mg/kg i.v., 5 min) was “+48.3%”, the “Changes(%) of basal values, coronary sinus out flow” value (coronary sinus out flow; 20.0 mg/kg i.v., 10 min) was “+47.1%” and the “Changes(%) of basal values, coronary sinus out flow” value (coronary sinus out flow; 20.0 mg/kg i.v., 20 min) was “+30.0%”. The “Changes(%) of basal values, coronary sinus out flow” value (coronary sinus out flow; 20.0 mg/kg i.v., 30 min) was “+11.8%”, the “Changes(%) of basal values, coronary sinus out flow” value (coronary sinus out flow; 20.0 mg/kg i.v., imm.) was “+18.5%” and the “Effects on coronary sinus out flow (in words)” value (coronary sinus out flow; i.v., anesthetized dogs) was “a marked increasing effect on coronary sinus out flow, which was proportioned to doses thereof and of long duration”. The “Changes(%) of basal values, coronary sinus oxygen tension” value ([2]; 2.0 mg/kg i.v., 1 min) was “+15.2%”, the “Changes(%) of basal values, coronary sinus oxygen tension” value ([2]; 2.0 mg/kg i.v., 5 min) was “+13.8%” and the “Changes(%) of basal values, coronary sinus oxygen tension” value ([2]; 2.0 mg/kg i.v., 10 min) was “+12.5%”. The “Changes(%) of basal values, coronary sinus oxygen tension” value ([2]; 2.0 mg/kg i.v., 20 min) was “+12.0%”, the “Changes(%) of basal values, coronary sinus oxygen tension” value ([2]; 2.0 mg/kg i.v., 30 min) was “+12.0%” and the “Changes(%) of basal values, coronary sinus oxygen tension” value ([2]; 2.0 mg/kg i.v., imm.) was “+11.2%”. The “Changes(%) of basal values, coronary sinus oxygen tension” value ([2]; 6.0 mg/kg i.v., 1 min) was “+27.5%”, the “Changes(%) of basal values, coronary sinus oxygen tension” value ([2]; 6.0 mg/kg i.v., 5 min) was “+27.0%” and the “Changes(%) of basal values, coronary sinus oxygen tension” value ([2]; 6.0 mg/kg i.v., 10 min) was “+30.0%”. For the same compound, the “Changes(%) of basal values, coronary sinus oxygen tension” value ([2]; 6.0 mg/kg i.v., 20 min) was “+19.6%”, the “Changes(%) of basal values, coronary sinus oxygen tension” value ([2]; 6.0 mg/kg i.v., 30 min) was “+13.5%” and the “Changes(%) of basal values, coronary sinus oxygen tension” value ([2]; 6.0 mg/kg i.v., imm.) was “+18.0%”. For the same compound, the “Changes(%) of basal values, coronary sinus oxygen tension” value ([2]; 20.0 mg/kg i.v., 1 min) was “+47.2%”, the “Changes(%) of basal values, coronary sinus oxygen tension” value ([2]; 20.0 mg/kg i.v., 5 min) was “+39.0%” and the “Changes(%) of basal values, coronary sinus oxygen tension” value ([2]; 20.0 mg/kg i.v., 10 min) was “+91.7%”. The “Changes(%) of basal values, coronary sinus oxygen tension” value ([2]; 20.0 mg/kg i.v., 20 min) was “+72.5%”, the “Changes(%) of basal values, coronary sinus oxygen tension” value ([2]; 20.0 mg/kg i.v., 30 min) was “+56.9%” and the “Changes(%) of basal values, coronary sinus oxygen tension” value ([2]; 20.0 mg/kg i.v., imm.) was “+31.6%”. For the same compound, the “Effects on coronary sinus oxygen tension (in words)” value ([2]; i.v., anesthetized dogs) was “a significant increase in coronary sinus oxygen tension, effect of which was of long duration”, the “Changes(%) of basal values, heart rate” value (heart rate; 2.0 mg/kg i.v., 1 min) was -4.7% and the “Changes(%) of basal values, heart rate” value (heart rate; 2.0 mg/kg i.v., 5 min) was -0.6%. The “Changes(%) of basal values, heart rate” value (heart rate; 2.0 mg/kg i.v., 10 min) was -0.4%, the “Changes(%) of basal values, heart rate” value (heart rate; 2.0 mg/kg i.v., 20 min) was 0% and the “Changes(%) of basal values, heart rate” value (heart rate; 2.0 mg/kg i.v., 30 min) was 0%. The “Changes(%) of basal values, heart rate” value (heart rate; 2.0 mg/kg i.v., imm.) was -5.2%, the “Changes(%) of basal values, heart rate” value (heart rate; 6.0 mg/kg i.v., 1 min) was -3.9% and the “Changes(%) of basal values, heart rate” value (heart rate; 6.0 mg/kg i.v., 5 min) was -2.3%. The “Changes(%) of basal values, heart rate” value (heart rate; 6.0 mg/kg i.v., 10 min) was -0.9%, the “Changes(%) of basal values, heart rate” value (heart rate; 6.0 mg/kg i.v., 20 min) was “+1.0%” and the “Changes(%) of basal values, heart rate” value (heart rate; 6.0 mg/kg i.v., 30 min) was “+1.0%”. The “Changes(%) of basal values, heart rate” value (heart rate; 6.0 mg/kg i.v., imm.) was -5.0%, the “Changes(%) of basal values, heart rate” value (heart rate; 20.0 mg/kg i.v., 1 min) was “+1.5%” and the “Changes(%) of basal values, heart rate” value (heart rate; 20.0 mg/kg i.v., 5 min) was 0%. The “Changes(%) of basal values, heart rate” value (heart rate; 20.0 mg/kg i.v., 10 min) was -1.8%, the “Changes(%) of basal values, heart rate” value (heart rate; 20.0 mg/kg i.v., 20 min) was -6.0% and the “Changes(%) of basal values, heart rate” value (heart rate; 20.0 mg/kg i.v., 30 min) was -6.7%. For the same compound, the “Changes(%) of basal values, heart rate” value (heart rate; 20.0 mg/kg i.v., imm.) was -7.0% and the “Effects on heart rate (in words)” value (heart rate; i.v., anesthetized dogs) was “a slight negative chronotropic effect”.
